Several values for one entry are separate records, joined by “and”; a condition that tells them apart may be missing. Equal values may be shown once. Read-outs that look alike come from different tables or passages of the source.
Tests used:
[1] = test system: CVA16; assay: Neutralization test: inhibition of CVA16-induced CPE on Vero cells; type: cell-based, Coxsackievirus A16 (laboratory viral culture); conditions: for IC50: CPE on Vero cells, 100 TCID50, Reed-Muench; for CVA16 SI: selectivity index
Description: (§1) The anti-EV71 activity, anti-CVA16 activity, and cytotoxicity of the compounds on the EV71 test strain (Shenzhen 98, shzh01-8) and CVA16 (laboratory viral culture) were evaluated by using cell culture cytopathic effect assays.
(§2) This assay measured the ability of the test compounds to inhibit the CPE induced by EV71 and CVA16 on Vero cells. The 96-well tissue culture plates were seeded with 20,000 Vero cells/mL. The plates were incubated for 24 h at 37 °C. The virus (100 TCID50) mixed with different concentrations of the test compounds was added to the cells, which were incubated at 37 °C for 2 h. After adsorption, the infected cells were overlaid with 50 μL of Dulbecco’s modified Eagle’s medium with 5% fetal bovine serum, and 2% DMSO. […] All assays were performed in triplicate.

[2] = test system: Vero cells; assay: Cytotoxicity assay on Vero cells; type: cell-based; conditions: for TC50: 96 h, concentration reducing cell viability to 50%
Description: The Vero cells treated with the test compounds were incubated at 37 °C for 96 h. After incubation, the cells were harvested and counted.

[3] = test system: EV71; assay: Neutralization test: inhibition of EV71-induced CPE on Vero cells; type: cell-based, Enterovirus 71 (Shenzhen 98, shzh01-8); conditions: for IC50: CPE on Vero cells, 100 TCID50, Reed-Muench; for EV71 SI: selectivity index
Description: as §1, §2

[4] = set-up: method as in PMID 23519203; conditions: pirodavir; cited from earlier work
[5] = test system: EV71; set-up: method as in PMID 23519203; conditions: pirodavir; cited from earlier work

Row | SMILES | melting point [°C] | IC50 ([1]; Enterovirus A, CVA16, Vero) [µM] | CVA16 SI [1] | TC0 [2] | TC50 [2] | IC50 ([3]; Enterovirus A, EV71, Vero) [µM] | EV71 SI [3] | IC50 [1] [µM] | IC50 [3] [µM] | TC50 [4] [µM] | IC50 [5] [µM] | SI [5]
1 | CC(C)(C)c1ccc(OCCCCCCN2CCN(c3nccs3)CC2)cc1 [Compound 8f, 2-(4-(6-(4-tert-Butylphenoxy)hexyl)piperazin-1-yl)thiazole] | 30 to 32 | 7.8 ± 0.6 | 2.0 | 7.8 ± 0.4 µM | 15.6 ± 0.3 µM | 3.9 ± 0.1 | 4.0 |  |  |  |  | 
2 | CCc1ccc(OCCCCCCN2CCN(c3nccs3)CC2)cc1.Cl [Compound 8d, 2-(4-(6-(4-Ethylphenoxy)hexyl)piperazin-1-yl)thiazole hydrochloride] | 240 to 242 | 14 ± 0.5 | 4.0 | 28.0 ± 2.5 µM | 56.0 ± 3.3 µM | 4.4 ± 0.3 | 12.7 |  |  |  |  | 
3 | CC(C)c1ccc(OCCCCCCN2CCN(c3nccs3)CC2)cc1.Cl [Compound 8e, 2-(4-(6-(4-Isopropylphenoxy)hexyl)piperazin-1-yl)thiazole hydrochloride] | 135 to 137 | 1.24 | 34.8 | 6.8 ± 0.8 µM | 43.08 µM and 43.1 ± 4.7 µM | 4.28 | 10.1 | 1.2 ± 0.5 | 4.3 |  |  | 
4 | COC(=O)c1ccc(OCCC2CCN(c3cc(Cl)nnc3Cl)CC2)cc1 [Compound 9d] |  | 22.1 ± 1.1 | 8.7 | 30.5 ± 2.0 µM | 193 ± 19.3 µM | > 31.5 |  |  |  |  |  | 
5 | CCOc1ccc(OCCCCCCN2CCN(c3nccs3)CC2)cc1.Cl [Compound 8c, 2-(4-(6-(4-Ethoxyphenoxy)hexyl)piperazin-1-yl)thiazole hydrochloride] | 222 to 224 | 6.8 ± 0.4 | 8.0 | 6.8 ± 0.1 µM | 54.1 ± 8.1 µM | 4.3 ± 0.1 | 12.7 |  |  |  |  | 
6 | CCOc1ccc(OCCN2CCN(c3cc(Cl)nnc3Cl)CC2)cc1 [Compound 9c] |  | 10.8 ± 0.3 | 5.8 | 31.5 ± 2.1 µM | 62.9 ± 2.4 µM | > 31.5 |  |  |  |  |  | 
7 | CCCCc1ccc(OCCN2CCN(c3cc(Cl)nnc3Cl)CC2)cc1 [Compound 9a] |  | 1.4 ± 0.1 | 13.8 | 7.7 ± 0.3 µM | 19.2 ± 0.7 µM | 1.2 | 16.1 |  |  |  |  | 
8 | Clc1cc(N2CCN(CCOc3ccc(-n4cnnc4)cc3)CC2)c(Cl)nn1 [Compound 9b] |  | > 29.7 |  | 29.74 µM and 29.7 ± 2.2 µM | 189 ± 17.3 µM | 21.6 ± 1.4 | 8.7 | > 29.7 |  |  |  | 
9 | CCOc1ccc(OCCCCCN2CCN(c3nccs3)CC2)cc1 [Compound 8b, 2-(4-(5-(4-Ethoxyphenoxy)pentyl)piperazin-1-yl)thiazole] | 79 to 81 | 5.3 ± 0.3 | 12.7 | 33.3 ± 3.9 µM | 66.6 ± 1.0 µM | 21 ± 1.2 | 3.2 |  |  |  |  | 
10 | COc1ccc(OCCCCCN2CCN(c3nccs3)CC2)cc1 [Compound 8a, 2-(4-(5-(4-Methoxyphenoxy)pentyl)piperazin-1-yl)thiazole] |  | 69.2 ± 5.5 | 4.0 | 138 ± 9.6 µM | 277 ± 2.2 µM | 100 ± 9 | 2.8 |  |  |  |  | 
11 | CCOC(=O)c1ccc(OCCC2CCN(c3ccnnc3Cl)CC2)nc1 [Compound 9f] |  | 16 ± 0.9 | >32.0 | 128 ± 9.5 µM | >512 µM | 25.4 ± 1.7 | >20.2 |  |  |  |  | 
12 | CCOC(=O)c1ccc(OCCC2CCN(c3ccc(C)nn3)CC2)cc1 [pirodavir] |  |  |  |  |  |  |  |  |  | 31 ± 2.2 | 1.2 ± 0.2 | 25

Reference: paper PMC6269887, “Novel Substituted Heteroaromatic Piperazine and Piperidine Derivatives as Inhibitors of Human Enterovirus 71 and Coxsackievirus A16” (Molecules, 2013)
